Values of other authors, collected in patent US20050142225A1, “Stabilised pharmaceutical compositions on the basis of polyoxyethlated castor oil and method for manufacturing the same” (Pliva-Lachema A.S., priority 2003, published 2005).
Like-named read-outs stand apart in the source and are kept apart here.

**Q.** Which content of taxol (composition with Cremophor EL, without an acid (pH of 9.1), after 7 days at 40° C.) does the source give for CC(=O)O[C@H]1C(=O)[C@@]2(C)[C@H]([C@H](OC(=O)c3ccccc3)[C@]3(O)C[C@H](OC(=O)[C@H](O)[C@@H](NC(=O)c4ccccc4)c4ccccc4)C(C)=C1C3(C)C)[C@]1(OC(C)=O)CO[C@@H]1C[C@@H]2O [taxol, paclitaxel] here?
**A.** The content of taxol was 86,7%.

**Q.** What about the content of taxol (composition with pH adjusted by acetic acid to 6.7, after 7 days) of the same compound?
**A.** Its content of taxol is 97,5%.

**Q.** And the content of taxol (composition with pH adjusted by citric acid to 6.2, after 7 days)?
**A.** The content of taxol was 96,6%.
